Assay results from patent publication US20070037783A1, “Migrastatin analogs and uses thereof” (priority 2003, published 2007).

Experiments:
[1] = system: HUVECs (human umbilical vein endothelial cells); experiment: Boyden chamber cell migration assay with HUVECs; format: cell-based; conditions: chamber cell migration; average of three experiments; read-out: IC50 (HUVEC)
Description: (§1) Chamber Cell Migration Assay (Tables 4 and 6): Cell migrations were assayed with Boyden chambers [8.0 μm pore size, polyethylene terephthalate membrane, FALCON cell culture insert (Becton-Dickinson)]. 4T1 mouse breast tumor cells or HUVECs were trypsinized and counted. 300 μl of 5-10×10^4 cells in serum-free medium was added to the upper chamber and 500 μl of medium with 10% fetal bovine serum (FBS) was added to the lower chamber. The transwells were incubated for 6-8 h at 37° C. with different concentrations of chemical compound in both upper and lower chamber. Cells on the inside of the transwell inserts were removed with a cotton swab, and cells on the underside of the insert were fixed and stained. Photographs of three random regions were taken and the number of cells was counted to calculate the average number of cells that have transmigrated.

4T1 tumor cells = experiment: Cell proliferation assay (MTT); conditions: MTT, 48 h; up to 20 μM
Description: Cell Proliferation Assay: 4×10^4 of 4T1 tumor cells in RPMI-1640 medium containing 10% FBS were seeded into wells of 96-multiwell plates (Becton-Dickinson) in the presence or absence of chemical compounds and then incubated at 37° C. for 48 h. An MTT kit (Cell Proliferation Kit I, Roche) (a colorimetric assay) was used to quantify cell proliferation and viability. The number of living cells, thus the total metabolic activity, directly correlates to the amount of purple formazan crystals formed (monitored by the absorbance).

[2] = Mouse plasma stability study (HPLC); format: in vitro ADME
Description: Mouse Plasma Stability Studies (Table 5): HPLC conditions: The sample is injected and separated using an Inertsil ODS3 6u 3×150 mm column with a mobile phase of MeCN and water (50% for migrastatin) at a flow of 0.4 mL/min, monitored at 220 nm at 0.02 AUFS (the retention time for migrastatin is ca. 4 min, the identity of this peak was confirmed by mass spectral analysis). Incubation and sample preparation conditions: A solution (ca. 30 mM) of chemical compound (Table 5) in DMSO is prepared. 2 μL of the solution is added to a mixture containing 200 μL of mouse plasma and 800 μL of PBS. The resulting solution is put into a water bath at 37° C., and 100 μL of sample is withdrawn at 10, 20, 30, 45, and 60 min. The precipitate is removed by centrifugation and 20 μL of the supernatant is injected onto the HPLC.

[3] = system: 4T1 mouse breast tumor cells; experiment: Wound-healing assay with 4T1 cells (FIG. 6); format: cell-based; conditions: with serum; 200 μM; overnight
Description: In the wound healing assay, standard scratches (i.e., wounds) were made through a confluent 4T1 cell layer. In the absence of serum, cells would not migrate across the empty space created by application of the scratch. Upon addition of serum containing migration-enabling factors, migration of 4T1 cells across the scratch was induced. Exposure to these cells to inventive compounds allowed the evaluation of the cell migration inhibitory activity of these compounds.
Wound-Healing Assay (See FIG. 6). 4T1 mouse breast tumor cells in RPMI-1640 medium containing 10% fetal bovine serum (FBS) were seeded into wells of 24-multiwell plates (Becton-Dickinson). After cells grew to confluence, wounds were made with sterile pipette tips. Cells were washed with Phosphate Buffered Saline (PBS) and refreshed with growth medium containing different concentrations of chemical compounds. After overnight incubation at 37° C., cells were fixed and photographed.

[4] = system: 4T1 mouse breast tumor cells; experiment: Boyden chamber cell migration assay with 4T1 tumor cells; format: cell-based; conditions: chamber cell migration, 6-8 h; average of three experiments; read-out: IC50 (4T1 tumor cells)
Description: The biological evaluation of the compounds (in terms of their ability to inhibit cell migration) was accomplished in a Boyden chamber cell migration assay. In this assay, mouse breast tumor cells (4T1 cells) or endothelial cells (HUVECs) are seeded on the upper chamber of a transwell insert. Growth factor-containing serum is added to the lower chamber.
as §1, with “The transwells were incubated for 6-8 h at 37° C. with different concentrations of chemical compound in both upper and lower chamber.” left out

[5] = system: 4T1 tumor lung metastasis; experiment: 4T1 tumor lung metastasis in syngeneic mice (6-thioguanine clonogenic assay); format: in vivo, BALB/c mice; conditions: for lung metastasis colonies: lungs Day 28, mean and standard deviation
Description: Inhibition of metastasis of mouse breast tumors by migrastatin alogs in mice. 4T1 mouse breast tumor cell line was isolated from a single spontaneously arising mammary tumor from a BALB/BfC3H mouse (MMTV+).^62 The 4T1 tumor closely mimics human breast cancer in its anatomical site, immunogenecity, growth characteristics, and metastatic properties.^63 From the mammary gland, 4T1 tumor spontaneously metastasizes to a variety of target organs including the lung, bone, brain, and liver through primarily a hematogenous rout.^64
To assess the efficacy of therapeutic application of migrastatin analogs in the 4T1 murine mammary carcinoma models, we administered migrastatin analogs (macroketone and macrolactam) to BALB/c mice carrying the 4T1 tumors.
(§2) Female BALB/c mice (6-8 week old) were purchased from the Jackson Laboratory (Bar Harbor, Me.). All mice were housed at the Weill Medical College of Cornell University Animal Facilities in accordance with the Principles of Animal Care (NIH publication no. 85-23, revised 1985). 4T1 tumor cells (1×10^5) were injected subcutaneously into the abdominal mammary gland area of mice in 0.1 ml of a single-cell suspension in phosphate buffered saline (PBS) on Day 0. The dosage of tumor implantation was empirically determined to give rise to tumor of ˜10 mm in diameter in untreated wild type mice in 21-23 days. On Day 7, when the tumors averaged in size ˜4-5 mm in diameter, migrastatin analogs or control PBS saline were given every day by intraperitoneal injection at 10 mg/kg or 20 mg/kg per mouse until Day 25. On Day 28, the mice were sacrificed. This regiment of migrastatin analogs was well tolerated with no signs of overt toxicity. Every group included five mice. Primary tumors were measured using electronic calipers on the day when the mice were sacrificed. Tumor size was the square root of the product of two perpendicular diameters. Numbers of metastatic 4T1 cells in lung were determined by the clonogenic assay.^63 In brief, lungs were removed from each mouse on Day 28, finely minced and digested in 5 ml of enzyme cocktail containing 1× PBS and 1 mg/ml collagenase type IV for 2 hours at 37° C. on a platform rocker. After incubation, samples were filtered through 70 uM nylon cell strainers and washed twice with PBS. Resulting cells were suspended and plated serially diluted in 10 cm tissue culture dishes in medium RPMI1640 containing 60 uM thioguanine for clonogenic growth. 6-Thioguanine-resistant tumor cells formed foci after 14 days, at which time they were fixed with methanol and stained with 0.03% methylene blue for counting.
Treatment 4T1 tumor lung metaotmis in smgencie mice with Kigrastatin analogs (See, FIG. 4). 4T1 tumor cells (10^5) were injected s.c. in the abdominal mammary gland with 0.1 ml of a single-cell suspension. Macroketone or macrolactam at 10 mg/kg or 20 mg/kg was given i.p. on Day 7 when the tumor size was about 5 mm in diameter, and everyday until Day 25. On Day 28, the mice were sacrificed. Each group comprised five mice. Lung metastasis was measured by the 6-thiogunine clonogenic assay. The mean and standard deviation are presented. In the control group (daily PBS injection), there were 61300±18900 colonies.

4T1 tumors = experiment: Effect on 4T1 primary tumor growth in mice; format: in vivo, BALB/c mice; conditions: 10 mg/kg i.p. daily Day 7-25; tumors measured Day 28
Description: as §2, with “This regiment of migrastatin analogs was well tolerated with no signs of overt toxicity. Every group included five mice.” left out, “Tumor size was the square root of the product of two perpendicular diameters.” left out, “After incubation, samples were filtered through 70 uM nylon cell strainers and washed twice with PBS. Resulting cells were suspended and plated serially diluted in 10 cm tissue culture dishes in medium RPMI1640 containing 60 uM thioguanine for clonogenic growth. 6-Thioguanine-resistant tumor cells formed foci after 14 days, at which time they were fixed with methanol and stained with 0.03% methylene blue for counting.” left out
Effect of migrastatin analogs on 4T1 tumor cell growth (See, FIG. 5). […] On Day 28, primary tumors were measured using electronic calipers. […]

Row | SMILES | IC50 [1] | cytotoxic or anti-proliferative effects on 4T1 cells, in words (4T1 tumor cells) | stability (t1/2, mouse plasma) ([2]; mouse plasma/PBS, 37° C., sampled up to 60 min) | stability (mouse plasma), in words ([2]; stable = intensity of HPLC signal unchanged over 60 min of incubation) | inhibition of 4T1 cell migration across the scratch, in words [3] | IC50 [4] | inhibition of lung metastasis ([5]; 10 mg/kg i.p. daily Day 7-25) | lung metastasis colonies ([5]; 10 mg/kg i.p. daily Day 7-25) | inhibition of lung metastasis ([5]; 20 mg/kg i.p. daily Day 7-25) | lung metastasis colonies ([5]; 20 mg/kg i.p. daily Day 7-25) | effect on growth of 4T1 primary tumors, in words (4T1 tumors)
1 | COC1C=CCCCCC(=O)OCC(C)=CC(C)C1O (stereo not shown) [macrolactone (48), Macrolactone] | 0.125 µM | did not have any cytotoxic or anti-proliferative effects up to 20 μM | <5 min | hydrolyzed rapidly | almost completely inhibited cell migration across the scratch | 24 nM |  |  |  |  | 
2 | COC1C=CCCCCC(=O)CCC(C)=CC(C)C1O (stereo not shown) [macroketone (60), Macroketone] | 12 µM |  |  |  |  | 100 nM | ~94% | 3875±2525 colonies | ~99% | 650±575 colonies | minor effect on tumor growth
